This is an account of results in article PMC9882114 (bioRxiv, 2024).

In general, EC50 refers to the concentration needed to bring the measured effect to its halfway point.

Holding throughout (format): biochemical
In experiment [1] the test system is iNicSnFR12. As to the kind of experiment: Fluorescence dose-response relations of nicotinic drugs at purified iNicSnFR12.
Experiment [2] deals with iNicSnFR11. In words: Fluorescence dose-response relations of nicotinic drugs at purified iNicSnFR11. The conditions noted are these: purified iNicSnFR11 100 nM, 3×PBS pH 7.40, Hill fit.
Experiment [3] has as its system iNicSnFR12. Conditions: read-out: EC50, μM (Figure 1B, 1C, purified sensors); n = 3.
Experiment [4] concerns iNicSnFR12-S467R. In words: Nicotine-induced fluorescence increase of purified iNicSnFR12-S467R, Hill fit. The conditions noted are these: read-out: EC50 (nicotine-induced fluorescence, iNicSnFR12-S467R); SEM, n = 3.

In the case of `C[N+](C)(C)CCO` [choline], the “expected activation at iNicSnFR12” value is “at most 1%” in experiment [1] ([choline] 1 μM as in 10% rat serum) and at most 2.5% in experiment [1] ([choline] 2.5 μM as in 25% human serum). Also, the concentration for a half-maximal effect (EC50) in experiment [2] was around 170 µM; in experiment [3], at least 100 µM.

On to `CN1CCC[C@H]1c1cccnc1` [nicotine], for which, in experiment [4], the 50% effective concentration (EC50) was determined as 25.6 µM.
